Data as given in patent EP0774460A1, “BENZOIC ACID COMPOUND AND USE THEREOF AS MEDICINE” (YOSHITOMI PHARMACEUTICAL INDUSTRIES, LTD., priority 1994, dated 1995).
Where two headings read alike, the source gives them in different places.

Assays:
5-HT3 receptor = molecular target: T1, 5-HT3 receptor (Rattus norvegicus, UniProt P35563); test: 5-HT3 receptor binding test; conditions: for Ki: cells without asterisk, read-out: Affinity for receptor (Ki value, nM) 5-HT3
T1 construct: crude synapse membrane sample was prepared from rat cerebral cortex; from tissue; host or cells: rat cerebral cortex, crude synaptic membranes
T1 sequence (P35563 24-483): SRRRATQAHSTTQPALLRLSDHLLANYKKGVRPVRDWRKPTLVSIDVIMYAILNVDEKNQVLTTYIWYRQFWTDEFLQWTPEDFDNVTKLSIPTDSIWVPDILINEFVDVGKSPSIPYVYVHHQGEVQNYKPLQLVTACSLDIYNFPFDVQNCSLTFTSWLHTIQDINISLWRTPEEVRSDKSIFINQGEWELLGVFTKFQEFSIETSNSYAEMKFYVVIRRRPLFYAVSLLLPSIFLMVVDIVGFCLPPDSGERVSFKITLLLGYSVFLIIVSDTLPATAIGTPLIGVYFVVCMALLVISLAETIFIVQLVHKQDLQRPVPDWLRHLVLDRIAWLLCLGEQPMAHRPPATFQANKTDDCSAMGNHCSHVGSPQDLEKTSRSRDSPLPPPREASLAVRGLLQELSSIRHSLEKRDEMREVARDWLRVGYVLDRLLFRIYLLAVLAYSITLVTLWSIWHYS
Protocol: Experimental Example 2 : 5-HT3 receptor binding test
According to the method of Peroutka et al (European Journal of Pharmacology, vol. 148, pp. 297-299), a specific 5-HT3 receptor binding test was run using, as a tracer ligand, endo-1-methyl-N-(9-methyl-9-azabicyclo[3.3.1]non-3-yl)-1H-indazole-3-carboxamide substituted by tritium (hereinafter to be referred to as [3H]Granisetron). Specifically, crude synapse membrane sample was prepared from rat cerebral cortex, suspended in 50 mM HEPES buffer (pH 7.4) and used for testing. The test compound having several different concentrations and [3H]Granisetron (final concentration 1.0 nM) were added to this suspension and allowed to react at 25°C. Thirty minutes later, the reaction mixture was filtered by suction with cell harvester. The filter was washed with 50 mM Tris buffer (pH 7.4), and the radioactivity on the filter was counted using liquid scintillation counter or β-plate. The non-specific binding was determined in the presence of 1 µM Tropisetron. The concentration of the test compound necessary for 50% inhibition (IC50) and Ki value were determined from graph.

5-HT4 receptor = molecular target: T2, 5-HT4 receptor (Cavia porcellus, UniProt O70528); test: 5-HT4 receptor binding test; parameters: species or system guinea pig
T2 construct: crude synapse membrane sample was prepared from guinea pig striatum; from tissue; host or cells: guinea pig striatum, crude synaptic membranes
T2 sequence (O70528 whole entry): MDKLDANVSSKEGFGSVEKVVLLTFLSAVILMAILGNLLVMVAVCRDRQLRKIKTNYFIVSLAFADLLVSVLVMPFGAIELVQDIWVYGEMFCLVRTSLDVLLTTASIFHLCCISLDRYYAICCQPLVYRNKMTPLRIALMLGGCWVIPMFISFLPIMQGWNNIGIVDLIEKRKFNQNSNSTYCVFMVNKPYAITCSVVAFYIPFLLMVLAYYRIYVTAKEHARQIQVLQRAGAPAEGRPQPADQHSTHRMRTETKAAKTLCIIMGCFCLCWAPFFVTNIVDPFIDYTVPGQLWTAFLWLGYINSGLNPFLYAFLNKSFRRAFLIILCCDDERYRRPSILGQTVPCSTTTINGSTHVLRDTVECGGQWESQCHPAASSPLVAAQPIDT
Protocol: Experimental Example 1 : 5-HT4 receptor binding test
According to the method of C.J. Grossman et al. (British Journal of Pharmacology, vol. 109, pp. 618-624), a specific 5-HT4 receptor binding test was run using, as a tracer ligand, 1-methyl-1H-indole-3-carboxylic acid · 1-(2-methylsulfonylaminoethyl)-piperidin-4-ylmethyl ester substituted by tritium (hereinafter to be referred to as [3H]GR113808). Specifically, crude synapse membrane sample was prepared from guinea pig striatum, suspended in 50 mM HEPES buffer (pH 7.4) and used for testing. The test compound having several different concentrations and [3H]GR113808 (final concentration 0.1 nM) were added to this suspension and allowed to react at 37°C. Thirty minutes later, the reaction mixture was filtered by suction with cell harvester. The filter was washed with 50 mM HEPES buffer, and the radioactivity on the filter was counted by liquid scintillation counter. The non-specific binding was determined in the presence of 1 µM GR113808. The concentration of the test compound necessary for 50% inhibition (IC50) and Ki value were determined from graph.

[1] = molecular target: isolated guinea pig ascending colon (Cavia porcellus, UniProt O70528); test: contraction of isolated guinea pig ascending colon; assay type: cell-based; conditions: male Hartley guinea pig ascending colon, Tyrode solution 37°C, relative to methacholine (30 µM) contraction; read-out: Contraction of removed colon (EC50)
Chain of isolated guinea pig ascending colon (O70528 whole entry): as above
Protocol: Experimental Example 3 : contraction of isolated guinea pig ascending colon
About 3 cm long ascending colon segment was taken from male Hartley guinea pig and suspended in 10 ml of a Tyrode solution ventilated with a mixed gas of oxygen (95%) and CO2 (5%) at 37°C with the load of 2 g. The contraction was isotonically measured via isotonic transducer. After an equilibrium period of about 30 min, the test compound was administered non-cumulatively from lower concentrations, and dose-dependent contraction was measured. The test compound was administered at 15 minutes intervals. Then, contraction by the test compound in the presence of a 5-HT4 receptor antagonist, 4-amino-3-chloro-6-methoxybenzoic acid · 2-diethylaminoethyl ester (0.3 µM, hereinafter to be referred to as SDZ 205-557) was determined, and antagonistic effect on the reaction by SDZ 205-557 was confirmed.
The contraction by the test compound was evaluated based on the ratio of reaction relative to mean contraction induced by methacholine (30 µM) administered before and after each determination of dose-dependent contraction. The contraction was probit-converted using the maximum value of dose-response curve as 100, and expressed by EC50 as determined from linear regression and maximum reaction ratio.

[2] = [3H]Granisetron 1.0 nM, crude synapse membrane from rat cerebral cortex, 25°C, cells marked * are IC50, read-out: Affinity for receptor 5-HT3 (∗ shows IC50)
[3] = [3H]GR113808 0.1 nM, crude synapse membrane from guinea pig striatum, 37°C, read-out: Affinity for receptor (Ki value, nM) 5-HT4
[4] = [3H]Granisetron 1.0 nM, crude synapse membrane from rat cerebral cortex, 25°C

| SMILES | IC50 (5-HT3 receptor; [2]) [nM] | Ki (5-HT4 receptor; [3]) [nM] | EC50 [1] [nM] | Ki (5-HT3 receptor; [4]) [nM] | IC50 (5-HT3 receptor) [nM] | Ki (5-HT4 receptor) [nM] |
| --- | --- | --- | --- | --- | --- | --- |
| COc1cc(N)c(Cl)cc1C(=O)NC[C@H]1CCN(CCCNC(=O)c2ccccc2)C1 [Example 11, 4-amino-N-((3R)-1-(3-benzoylaminopropyl)pyrrolidin-3-ylmethyl)-5-chloro-2-methoxybenzamide] | > 1000 | 6.2 |  |  |  |  |
| COc1cc(N)c(Cl)cc1C(=O)NCC1CCN(CCCNC(=O)c2ccc(Cl)cc2)C1 (stereo not drawn) [Example 13, 4-amino-5-chloro-N-(1-(3-(4-chlorobenzoylamino)propyl)pyrrolidin-3-ylmethyl)-2-methoxybenzamide] | > 1000 | 3.1 |  |  |  |  |
| COc1cc(N)c(Cl)cc1C(=O)NCC1CCN(CCCNC(=O)c2ccc(C)cc2)C1 (stereo not drawn) [Example 17, 4-amino-5-chloro-2-methoxy-N-(1-(3-(4-methylbenzoylamino)propyl)pyrrolidin-3-ylmethyl)benzamide] | > 1000 | 3.1 |  |  |  |  |
| COc1cc(N)c(Cl)cc1C(=O)NCC1CCN(CCCNC(=O)c2cccs2)C1 (stereo not drawn) [Example 19, 4-amino-5-chloro-2-methoxy-N-(1-(3-(2-thiophenecarbonylamino)propyl)pyrrolidin-3-ylmethyl)benzamide] | > 1000 | 4.4 |  |  |  |  |
| COc1cc(N)c(Cl)cc1C(=O)NC[C@H]1CCN(CCCCNC(=O)c2cccc3ccccc23)C1 [Example 22, 4-amino-5-chloro-2-methoxy-N-((3R)-1-(4-(1-naphthoylamino)butyl)pyrrolidin-3-ylmethyl)benzamide] | > 1000 | 1.3 | 3.3 |  |  |  |
| COc1cc(N)c(Cl)cc1C(=O)NCC1CCN(CCCCNC(=O)c2cccc3ccccc23)CC1 [Example 24, 4-amino-5-chloro-2-methoxy-N-(1-(4-(1-naphthoylamino)butyl)piperidin-4-ylmethyl)benzamide] | > 1000 | 1.6 | 3.9 |  |  |  |
| COc1cc(N)c(Cl)cc1C(=O)NCC1CCN(CCCCNC(=O)c2ccc3ccccc3c2)CC1 [Example 25, 4-amino-5-chloro-2-methoxy-N-(1-(4-(2-naphthoylamino)butyl)piperidin-4-ylmethyl) benzamide] | > 1000 | 1.4 | 4.6 |  |  |  |
| COc1cc(N)c(Cl)cc1C(=O)NC[C@H]1CCN(CCCCCNC(=O)c2ccccc2)C1 [Example 27, 4-amino-N-((3R)-1-(5-benzoylaminopentyl)pyrrolidin-3-yl-methyl)-5-chloro-2-methoxybenzamide] | > 1000 | 2.2 | 5.3 |  |  |  |
| COc1cc(N)c(Cl)cc1C(=O)NCC1CCN(CCCCCNC(=O)c2ccccc2)CC1 [Example 29, 4-amino-N-(1-(5-benzoylaminopentyl)piperidin-4-ylmethyl)-5-chloro-2-methoxybenzamide] | > 1000 | 1.7 | 3.7 |  |  |  |
| COc1cc(N)c(Cl)cc1C(=O)NC[C@H]1CCN(CCCCNC(=O)c2cn(C(C)C)c3ccccc23)C1 [Example 94, N-(4-((3R)-3-(4-amino-5-chloro-2-methoxybenzoylaminomethyl)pyrrolidin-1-yl)butyl)-1-isopropyl-1H-indole-3-carboxamide] |  |  |  |  | > 1000 | 3.5 |
| COc1cc(N)c(Cl)cc1C(=O)NC[C@H]1CCN(CCCCNC(=O)c2cn(Cc3ccccc3)c3ccccc23)C1 [Example 95, N-(4-((3R)-3-(4-amino-5-chloro-2-methoxybenzoylaminomethyl)pyrrolidin-1-yl)butyl)-1-benzyl-1N-indole-3-carboxamide] | > 1000 | 1.2 |  |  |  |  |

More lines, main results first:

| IC50 (5-HT3 receptor; [2]) [nM] | Ki (5-HT4 receptor; [3]) [nM] | EC50 [1] [nM] | Ki (5-HT3 receptor; [4]) [nM] | SMILES | IC50 (5-HT3 receptor) [nM] | Ki (5-HT4 receptor) [nM] |
| --- | --- | --- | --- | --- | --- | --- |
| > 1000 | 0.81 | 1.6 |  | COc1cc(N)c(Cl)cc1C(=O)NCC1CCN(CCCCCNC(=O)c2cccc(Cl)c2)CC1 [Example 30, 4-amino-5-chloro-N-(1-(5-(3-chlorobenzoylamino)pentyl)piperidin-4-ylmethyl)-2-methoxybenzamide] |  |  |
| > 1000 | 2.3 |  |  | COc1cc(N)c(Cl)cc1C(=O)NCC1CCN(CCCCCNC(=O)c2ccc(C)cc2)CC1 [Example 31, 4-amino-5-chloro-N-(1-(5-(4-methylbenzoylamino)pentyl)piperidin-4-ylmethyl)-2-methoxybenzamide] |  |  |
| > 1000 | 5.5 |  |  | CCCNC(=O)NCCCCN1CCC(CNC(=O)c2cc(Cl)c(N)cc2OC)CC1 [Example 45, 4-amino-5-chloro-2-methoxy-N-(1-(4-(3-n-propylureido)butyl)piperidin-4-ylmethyl)benzamide] |  |  |
| > 1000 | 1.5 | 6.9 |  | CCCNC(=O)NCCCCCN1CC[C@H](CNC(=O)c2cc(Cl)c(N)cc2OC)C1 [Example 46, 4-amino-5-chloro-2-methoxy-N-((3R)-1-(5-(3-n-propylureido)pentyl)pyrrolidin-3-ylmethyl)benzamide] |  |  |
| > 1000 | 2.1 | 4.8 |  | CCCNC(=O)NCCCCCN1CCC(CNC(=O)c2cc(Cl)c(N)cc2OC)CC1 [Example 48, 4-amino-5-chloro-2-methoxy-N-(1-(5-(3-n-propylureido)pentyl)piperidin-4-ylmethyl)benzamide] |  |  |
| > 1000 | 0.65 | 1 |  | COc1cc(N)c(Cl)cc1C(=O)NC[C@H]1CCN(CCCCCNC(=O)Nc2ccccc2)C1 [Example 56, 4-amino-5-chloro-2-methoxy-N-((3R)-1-(5-(3-phenylureido)pentyl)pyrrolidin-3-ylmethyl)benzamide] |  |  |
|  | 1.1 |  | 190 | COc1cc(N)c(Cl)cc1C(=O)NCC1CCN(CCCCCNC(=O)Nc2ccc(Cl)cc2)CC1 [Example 59, 4-amino-5-chloro-N-(1-(5-(3-(4-chlorophenyl)ureido)pentyl)-piperidin-4-ylmethyl)-2-methoxybenzamide] |  |  |
| > 1000 | 7.4 |  |  | COc1cc(N)c(Cl)cc1C(=O)NCC1CCN(CCCC(=O)Nc2ccccc2)C1 (stereo not drawn) [Example 71, 4-amino-5-chloro-2-methoxy-N-(1-(3-phenylcarbamoylpropyl)pyrrolidin-3-ylmethyl)benzamide] |  |  |
|  | 1.4 |  | 370 | COc1cc(N)c(Cl)cc1C(=O)NCCCCCN1CC[C@H](CNC(=O)c2cc(Cl)c(N)cc2OC)C1 [Example 78, 4-amino-N-((3R)-1-(5-(4-amino-5-chloro-2-methoxybenzoylamino)pentyl)pyrrolidin-3-ylmethyl)-5-chloro-2-methoxybenzamide] |  |  |
| > 1000 | 5.3 |  |  | COc1cc(N)c(Cl)cc1C(=O)NC[C@H]1CCN(CCNC(=O)CCCc2ccccc2)C1 [Example 100, 4-amino-5-chloro-2-methoxy-N-((3R)-1-(2-(4-phenylbutyrylamino)ethyl)pyrrolidin-3-ylmethyl)benzamide] |  |  |
